From article PMC3967745 (Journal of medicinal chemistry, 2012)

Key:
[1] = target: T1, human CB2 receptor (Homo sapiens, UniProt P34972); experiment: cell-based LANCE cAMP assay in CHO cells stably expressing CB2
[2] = tested on: normal human mononuclear cells (PBMC); experiment: cytotoxicity assay on human mononuclear cells; type: cell-based; settings: 72 h, PBMC from healthy donors
[3] = target: T1, human CB2 receptor; experiment: [3H]CP-55,940 radioligand competition binding assay, CB2; settings: calculated as Ki(CB1)/Ki(CB2) ratio

T1 sequence (P34972 whole entry): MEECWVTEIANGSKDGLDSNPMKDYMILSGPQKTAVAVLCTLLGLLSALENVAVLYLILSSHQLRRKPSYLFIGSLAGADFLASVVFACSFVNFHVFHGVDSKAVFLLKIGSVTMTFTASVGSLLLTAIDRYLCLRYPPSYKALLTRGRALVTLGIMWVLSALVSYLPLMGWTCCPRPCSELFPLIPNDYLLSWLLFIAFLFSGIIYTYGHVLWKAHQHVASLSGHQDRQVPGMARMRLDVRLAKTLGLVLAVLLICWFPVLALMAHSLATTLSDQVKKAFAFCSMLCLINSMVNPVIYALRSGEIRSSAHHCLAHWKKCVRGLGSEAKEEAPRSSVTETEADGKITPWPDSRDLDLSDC

| SMILES | functional activity at CB2 [1] | also measured |
| --- | --- | --- |
| CCN(CC)c1ccc(C(NC(=O)Cc2ccccc2)NC(=O)Cc2ccccc2)cc1 [Compound 26, N,N′-((4-(Diethylamino)phenyl)methylene)bis(2-phenylaceta-mide)] | CB2 inverse agonists | cytotoxic effects ([2]; 1 µM): did not show any cytotoxic effects; effects on cell viability ([2]; 10 µM): only slight effects on cell viability |
| CN(C)c1ccc(C(NC(=O)Cc2ccccc2)NC(=O)Cc2ccccc2)cc1 [Compound 9, N,N′-((4-(Dimethylamino)phenyl)methylene)bis(2-phenylacetamide)] | inverse agonists | – |
| CCCN(CCC)c1ccc(C(NC(=O)Cc2ccccc2)NC(=O)Cc2ccccc2)cc1 [Compound 27, N,N′-((4-(Dipropylamino)phenyl)methylene)bis(2-phenylaceta-mide)] | CB2 inverse agonists | – |
| CCCCCC(=O)NC(NC(=O)CCCCC)c1ccc(N(CC)CC)cc1 [Compound 59, N,N′-((4-(Diethylamino)phenyl)methylene)dihexanamide] | CB2 inverse agonists | – |
| O=C(Cc1ccc(Cl)cc1)NC(NC(=O)Cc1ccc(Cl)cc1)c1ccc(C(F)(F)F)cc1 [Compound 39, N,N′-((4-(Trifluoromethyl)phenyl)methylene)bis(2-(4-chlorophenyl)acetamide)] | – | SI: selectivity index for CB2 [3]: >198 |
| O=C(Cc1ccccc1)NC(NC(=O)Cc1ccccc1)c1ccc(N2CCCC2)cc1 [Compound 30, N,N′-((4-(Pyrrolidin-1-yl)phenyl)methylene)bis(2-phenylaceta-mide)] | CB2 inverse agonists | – |
| CC(C)c1ccc(C(NC(=O)Cc2ccccc2)NC(=O)Cc2ccccc2)cc1 [Compound 18, N,N′-((4-Isopropylphenyl)methylene)bis(2-phenylacetamide)] | CB2 inverse agonists | – |
